Molecular target: T1, Recombinant human cathepsin A (Homo sapiens, UniProt P10619)
T1 construct: Recombinant human cathepsin A (residues 29-480, with a C-terminal 10-His tag); 10-His (C); purchased R&D Systems 1049-SE
T1 sequence (P10619 29-326 limits assumed): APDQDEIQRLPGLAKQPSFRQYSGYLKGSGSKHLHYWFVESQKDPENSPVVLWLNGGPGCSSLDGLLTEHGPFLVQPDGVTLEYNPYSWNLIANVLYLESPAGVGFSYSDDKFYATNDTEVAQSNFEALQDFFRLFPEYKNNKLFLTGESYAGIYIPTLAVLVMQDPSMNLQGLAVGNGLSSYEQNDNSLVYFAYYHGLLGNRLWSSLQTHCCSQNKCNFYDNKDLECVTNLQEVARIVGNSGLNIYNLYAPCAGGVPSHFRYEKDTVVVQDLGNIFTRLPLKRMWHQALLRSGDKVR
T1 sequence (P10619 327-480 limits assumed): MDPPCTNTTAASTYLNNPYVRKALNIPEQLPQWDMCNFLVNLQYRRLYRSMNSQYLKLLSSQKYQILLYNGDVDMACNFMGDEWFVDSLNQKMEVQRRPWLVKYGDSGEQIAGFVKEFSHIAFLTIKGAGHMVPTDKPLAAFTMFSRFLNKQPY
Test: Cathepsin A inhibitory activity
Assay type: biochemical
Details: activated recombinant human cathepsin A 833 ng/ml, Bodipy FL-labeled bradykinin 2 μM, pH 5.5, 15 min room temperature
Procedure, shortened: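 Cathepsin A activated by cathepsin L (15 min, 37 °C, pH 6.0), then preincubated 15 min at room temperature with compound in 25 mM MES pH 5.5, 5 mM DTT. Bodipy FL-bradykinin cleavage ran 15 min at room temperature; substrate and product separated by microfluidic capillary electrophoresis, turnover from peak areas.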

Row | SMILES | IC50 [µM]
1 | O=C(O)C[C@H](NC(=O)c1nc(-c2ccccc2)n(-c2ccccc2)n1)c1ccccc1F [Example 90, (S)-3-[(1,5-Diphenyl-1H-[1,2,4]triazole-3-carbonyl)-amino]-3-(2-fluoro-phenyl)-propionic acid] | 0.353
2 | Cc1oc(-c2ccccc2F)nc1C(=O)N[C@@H](CC(=O)O)c1ccccc1F [Example 35, (S)-3-(2-Fluoro-phenyl)-3-{[2-(2-fluoro-phenyl)-5-methyl-oxazole-4-carbonyl]-amino}-propionic acid] | 5.14
3 | Cc1oc(-c2ccccc2)nc1C(=O)NC(CC(=O)O)Cc1ccccc1 (stereo not shown) [Example 4, 3-[(5-Methyl-2-phenyl-oxazole-4-carbonyl)-amino]-4-phenyl-butyric acid] | 12.9
4 | O=C(O)C[C@@H](Cc1ccccc1)NC(=O)c1noc(-c2ccccc2F)n1 [Example 13, (R)-3-{[5-(2-Fluoro-phenyl)-[1,2,4]oxadiazole-3-carbonyl]-amino}-4-phenyl-butyric acid] | 0.316
5 | CCn1nc(C(=O)N[C@@H](CC(=O)O)c2ccccc2C)cc1-c1ccccc1 [Example 21, (S)-3-[(1-Ethyl-5-phenyl-1H-pyrazole-3-carbonyl)-amino]-3-o-tolyl-propionic acid] | 0.152
6 | Cc1ccccc1[C@H](CC(=O)O)NC(=O)c1nc(C(C)C)n(-c2ccccc2Cl)n1 [Example 87, (S)-3-{[1-(2-Chloro-phenyl)-5-isopropyl-1H-[1,2,4]triazole-3-carbonyl]-amino}-3-o-tolyl-propionic acid] | 0.095
7 | O=C(O)CC(Cc1ccccc1)NC(=O)c1nc(-c2ccccc2)n(-c2ccccc2)n1 (stereo not shown) [Example 86, 3-[(1,5-Diphenyl-1H-[1,2,4]triazole-3-carbonyl)-amino]-4-phenyl-butyric acid] | 2.23
8 | CCc1nc(C(=O)N[C@@H](CC(=O)O)c2ccc(C)cc2)nn1-c1c(Cl)cccc1Cl [Example 107, (S)-3-{[1-(2,6-Dichloro-phenyl)-5-ethyl-1H-[1,2,4]triazole-3-carbonyl]-amino}-3-p-tolyl-propionic acid] | 0.545
9 | Cc1oc(-c2ccccc2F)nc1C(=O)N[C@@H](CC(=O)O)Cc1ccccc1 [Example 29, (R)-3-{[2-(2-Fluoro-phenyl)-5-methyl-oxazole-4-carbonyl]-amino}-4-phenyl-butyric acid] | 0.542
10 | Cc1ccccc1[C@H](CC(=O)O)NC(=O)c1nc(C)n(-c2ccccc2Cl)n1 [Example 57, (S)-3-{[1-(2-Chloro-phenyl)-5-methyl-1H-[1,2,4]triazole-3-carbonyl]-amino}-3-o-tolyl-propionic acid] | 0.261
11 | O=C(O)C[C@H](NC(=O)c1noc(-c2cccc(F)c2F)n1)c1ccccc1 [Example 20, (S)-3-{[5-(2,3-Difluoro-phenyl)-[1,2,4]oxadiazole-3-carbonyl]-amino}-3-phenyl-propionic acid] | 7.35
12 | CC(C)c1oc(-c2ccccc2)nc1C(=O)NC(CC(=O)O)Cc1ccccc1 (stereo not shown) [Example 45, 3-[(5-Isopropyl-2-phenyl-oxazole-4-carbonyl)-amino]-4-phenyl-butyric acid] | 8.88
13 | CC(C)c1oc(-c2ccccc2)nc1C(=O)N[C@@H](CC(=O)O)c1cccc(Cl)c1Cl [Example 103, (S)-3-(2,3-Dichloro-phenyl)-3-[(5-isopropyl-2-phenyl-oxazole-4-carbonyl)-amino]-propionic acid] | 0.598
14 | O=C(O)C[C@@H](Cc1ccccc1)NC(=O)c1noc(-c2cccc(F)c2F)n1 [Example 41, (R)-3-{[5-(2,3-Difluoro-phenyl)-[1,2,4]oxadiazole-3-carbonyl]-amino}-4-phenyl-butyric acid] | 13.4
15 | Cc1ccccc1[C@H](CC(=O)O)NC(=O)CCc1nc(-c2ccccc2F)no1 [Example 53, (S)-3-{3-[3-(2-Fluoro-phenyl)-[1,2,4]oxadiazol-5-yl]-propionylamino}-3-o-tolyl-propionic acid] | > 10
16 | Cc1ccccc1[C@H](CC(=O)O)NC(=O)c1nn(C(C)C)c2ccccc12 [Example 6, (S)-3-[(1-Isopropyl-1H-indazole-3-carbonyl)-amino]-3-o-tolyl-propionic acid] | 0.351
